The values below are quoted from earlier work in patent US20070197592A1, “Use of Paliperidone for the Treatment of Substance Abuse” (priority 2005, published 2007).

Data set [1] concerns golden hamster. The following applies: cited from earlier work.
For data set [2], the system named is animals. The following applies: cited from earlier work; for water or food consumption: at the same time as the inhibition of alcohol consumption.

SMILES strings stand for the structures.

In the case of `O=c1c(-c2ccc(O)cc2)coc2cc(O[C@@H]3O[C@H](CO)[C@@H](O)[C@H](O)[C@H]3O)ccc12` [Daidzin], in data set [1], the alcohol drinking entry is listed as “decreases alcohol drinking” and the “water or food intake” value is “without producing a decrease in water or food intake”.

In the case of `C=CCN1CC[C@]23c4c5ccc(O)c4O[C@H]2C(=O)CC[C@@]3(O)[C@H]1C5` [naloxone], in data set [2], the “water or food consumption” value is “impaired water or food consumption” and the alcohol consumption result is on record as “inhibit alcohol consumption”.

Take `O=C1CC[C@@]2(O)[C@H]3Cc4ccc(O)c5c4[C@@]2(CCN3CC2CC2)[C@H]1O5` [naltrexone]: in data set [2], the “water or food consumption” value was “impaired water or food consumption” and the alcohol consumption result was “inhibit alcohol consumption”.

As to `CN[C@H]1CC[C@@H](c2ccc(Cl)c(Cl)c2)c2ccccc21` [sertraline], in data set [2], the “water or food consumption” value is “impaired water or food consumption” and the alcohol consumption entry is “inhibit alcohol consumption”.
